According to PMC9116648, “Synthesis and biological evaluation of thiazolidine-2-thione derivatives as novel xanthine oxidase inhibitors” (PLoS ONE, 2022):
“Also recorded” adds a separate entry of the source. Where two headings read alike, the source gives them in different places.

Legend:
[1] = target: T1, Xanthine oxidase (XO) (Homo sapiens, UniProt P47989); assay: In vitro XO inhibitory potency (enzyme catalysis reaction, OD 295 nm); type: biochemical
Protocol: XO inhibitory activity was measured by enzyme catalysis reaction in vitro, with modifications. The XO solution (100 U/L) and xanthine solution (0.5 mmol/L) were prepared in PBS (10 mmol/L, pH = 7.4) and stored at 4°C. The test compounds were diluted to different concentrations with PBS. The enzyme catalysis reaction was performed in 96-well plates.

[2] = target: T1, Xanthine oxidase (XO); assay: Enzyme inhibitory kinetics (Lineweaver-Burk plots); type: biochemical
Protocol: The inhibitory mode of representative compound 6k was further investigated using enzyme inhibitory kinetic studies. XO solution (55 U/L) was mixed respectively with compound 6k (0, 5, 10, and 20 μmol/L) and incubated at 37°C for 5 min. Then, xanthine solution (0.25, 0.5, 1.0, and 2.0 mmol/L) were added to initiate the reaction at 37°C for 30 min. The reaction was carried out in a 96-well plate and the OD value were read using a microplate reader at 295 nm. The obtained data were analyzed using Microsoft Excel 2013 and transformed into Lineweaver-Burk plots using GraphPad Prism 7.0. In addition, the value of Ki and Kis could be calculated using GraphPad Prism 7.0.

[3] = target: T1, Xanthine oxidase (XO); details: literature statement; cited from earlier work
[4] = S1 Table, mean of three determinations, unit inferred, read-out: IC50 mean
[5] = S1 Table, single determination 1 of 3, unit inferred, read-out: IC50 (first replicate column)
[6] = S1 Table, single determination 2 of 3, unit inferred, read-out: IC50 (second replicate column)
[7] = S1 Table, single determination 3 of 3, unit inferred, read-out: IC50 (third replicate column)
[8] = mean±SD, tested in triplicate, xanthine substrate, 37°C, PBS pH 7.4, read-out: IC50

T1 sequence (P47989 whole entry, species assumed): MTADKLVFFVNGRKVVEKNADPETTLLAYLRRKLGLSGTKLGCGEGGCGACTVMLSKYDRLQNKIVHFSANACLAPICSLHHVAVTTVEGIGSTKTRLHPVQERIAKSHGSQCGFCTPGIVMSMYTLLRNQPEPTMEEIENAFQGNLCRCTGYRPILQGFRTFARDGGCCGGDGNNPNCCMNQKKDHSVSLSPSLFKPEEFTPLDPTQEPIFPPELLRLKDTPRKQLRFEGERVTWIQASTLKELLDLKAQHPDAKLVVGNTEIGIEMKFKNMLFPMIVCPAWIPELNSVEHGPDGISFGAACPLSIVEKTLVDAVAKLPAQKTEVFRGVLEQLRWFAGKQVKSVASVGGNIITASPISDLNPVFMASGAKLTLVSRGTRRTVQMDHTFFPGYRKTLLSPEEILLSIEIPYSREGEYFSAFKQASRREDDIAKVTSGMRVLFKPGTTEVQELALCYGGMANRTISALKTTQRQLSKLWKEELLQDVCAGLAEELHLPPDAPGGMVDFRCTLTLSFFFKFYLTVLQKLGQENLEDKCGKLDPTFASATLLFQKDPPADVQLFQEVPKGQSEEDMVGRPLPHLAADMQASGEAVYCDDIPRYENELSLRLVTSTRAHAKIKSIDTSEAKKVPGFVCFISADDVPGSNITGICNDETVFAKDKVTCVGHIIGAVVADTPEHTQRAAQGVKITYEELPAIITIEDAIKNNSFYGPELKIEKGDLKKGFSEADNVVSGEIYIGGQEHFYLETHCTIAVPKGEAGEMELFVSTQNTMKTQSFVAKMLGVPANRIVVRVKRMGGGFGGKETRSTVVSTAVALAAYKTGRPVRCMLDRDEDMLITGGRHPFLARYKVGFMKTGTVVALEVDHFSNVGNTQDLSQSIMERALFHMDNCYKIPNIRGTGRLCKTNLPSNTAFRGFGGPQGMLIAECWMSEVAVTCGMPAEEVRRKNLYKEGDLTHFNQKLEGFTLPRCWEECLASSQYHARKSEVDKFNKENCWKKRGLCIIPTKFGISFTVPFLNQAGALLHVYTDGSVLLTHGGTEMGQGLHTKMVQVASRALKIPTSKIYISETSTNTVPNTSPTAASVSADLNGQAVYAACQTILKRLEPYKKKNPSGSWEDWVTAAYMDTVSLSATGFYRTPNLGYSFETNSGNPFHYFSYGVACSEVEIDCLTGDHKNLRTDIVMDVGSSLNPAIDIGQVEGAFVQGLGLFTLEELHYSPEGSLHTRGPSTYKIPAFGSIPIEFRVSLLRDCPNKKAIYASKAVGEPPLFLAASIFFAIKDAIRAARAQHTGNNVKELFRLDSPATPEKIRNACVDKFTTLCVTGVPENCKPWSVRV

| Compound | IC50 [1, 4] | IC50 [1, 5] | IC50 [1, 6] | IC50 [1, 7] | IC50 [1, 8] | melting point | other results |
| --- | --- | --- | --- | --- | --- | --- | --- |
| O=C(NC1CCCCC1)N1CCSC1=S [Compound 6h, N-cyclohexyl-2-thioxothiazolidine-3-carboxamide] | 9.87 µM | 8.25 µM | 11.1 µM | 10.3 µM | 9.87 ± 1.19 µM | 114 to 115 °C | – |
| Cc1nc(-c2ccc(OCC(C)C)c(C#N)c2)sc1C(=O)O [Febuxostat, reference compound] | – | – | – | – | – | – | IC50 ([1]; IC50 (first replicate column), S1 Table, single determination 1 of 3, unit inferred): 3.02 µM; IC50 ([1]; IC50 (second replicate column), S1 Table, single determination 2 of 3, unit inferred): 2.91 µM; IC50 ([1]; IC50 (third replicate column), S1 Table, single determination 3 of 3, unit inferred): 4.08 µM; IC50 ([1]; IC50, mean±SD, tested in triplicate, xanthine substrate, 37°C, PBS pH 7.4): 3.34 ± 0.53 µM; IC50 ([1]; IC50 mean, S1 Table, mean of three determinations, unit inferred): 3.34 µM |
| CCN1CCSC1=S [Compound 4a, 3-ethyl-thiazolidine-2-thione] | 43.5 µM | 43.4 µM | 40.9 µM | 46.3 µM | 43.5 ± 2.18 µM | – | – |
| O=C(NS(=O)(=O)c1ccc(F)cc1)N1CCSC1=S [Compound 6k, N-((4-fluorophenyl)sulfonyl)-2-thioxothiazolidine-3-carboxamide] | 3.56 µM | 3.19 µM | 4.42 µM | 3.06 µM | 3.56 ± 0.61 µM | – | XO inhibitory potency relative to allopurinol (fold more potent) ([1]; ratio of IC50 values vs allopurinol): approximately 2.5 fold; Mode of XO inhibition ([2]; Lineweaver-Burk plots): mixed-type XO inhibition; also recorded: mixed competitive inhibition; also recorded: mixed-type XO inhibitor; Intercept of Lineweaver-Burk plot ([2]; compound 6k 5 µmol/L): 1.487; Slope of Lineweaver-Burk plot ([2]; compound 6k 5 µmol/L): 3.559; Intercept of Lineweaver-Burk plot ([2]; compound 6k 10 µmol/L): 2.126; Slope of Lineweaver-Burk plot ([2]; compound 6k 10 µmol/L): 4.587; Intercept of Lineweaver-Burk plot ([2]; compound 6k 20 µmol/L): 2.357; Slope of Lineweaver-Burk plot ([2]; compound 6k 20 µmol/L): 6.098; Ki ([2]; from secondary plot of Lineweaver-Burk slopes, XO 55 U/L): 7.08 µM |
| CCCCNC(=O)N1CCSC1=S [Compound 6c, N-butyl-2-thioxothiazolidine-3-carboxamide] | 30.5 µM | 30.1 µM | 33.5 µM | 28 µM | 30.5 ± 2.25 µM | – | – |
| CCCNC(=O)N1CCSC1=S [Compound 6b, N-propyl-2-thioxothiazolidine-3-carboxamide] | 27.8 µM | 27.2 µM | 27.6 µM | 28.6 µM | 27.8 ± 0.63 µM | – | – |
| S=C1SCCN1Cc1ccccc1 [Compound 4d, 3-benzyl-thiazolidine-2-thione] | 114 µM | 122 µM | 109 µM | 110 µM | > 100 µM | 115 to 117 °C | – |
| CC(C)CNC(=O)N1CCSC1=S [Compound 6d, N-isobutyl-2-thioxothiazolidine-3-carboxamide] | 19 µM | 21 µM | 17.7 µM | 18.4 µM | 19 ± 1.44 µM | – | – |
| CCNC(=O)N1CCSC1=S [Compound 6a, N-ethyl-2-thioxothiazolidine-3-carboxamide] | 22.9 µM | 19.9 µM | 23.5 µM | 25.3 µM | 22.9 ± 2.24 µM | – | – |
| Cc1ccc(S(=O)(=O)NC(=O)N2CCSC2=S)cc1 [Compound 6j, N-((4-methylphenyl)sulfonyl)-2-thioxothiazolidine-3-carboxamide] | 9.76 µM | 11.5 µM | 8.48 µM | 9.27 µM | 9.76 ± 1.29 µM | 127 to 129 °C | – |
| O=C(Nc1ccccc1)N1CCSC1=S [Compound 6e, N-phenyl-2-thioxothiazolidine-3-carboxamide] | 10.2 µM | 10.6 µM | 8.38 µM | 11.7 µM | 10.2 ± 1.37 µM | 101 to 102 °C | – |
| Oc1ncnc2[nH]ncc12 [Allopurinol] | – | – | – | – | – | – | Mode of XO inhibition [3]: competitive inhibition |
| O=C(NCc1ccccc1)N1CCSC1=S [Compound 6f, N-benzyl-2-thioxothiazolidine-3-carboxamide] | 12.8 µM | 12.8 µM | 14.8 µM | 10.8 µM | 12.8 ± 1.6 µM | 107 to 109 °C | – |
| O=C(NS(=O)(=O)c1ccccc1)N1CCSC1=S [Compound 6i, N-(phenylsulfonyl)-2-thioxothiazolidine-3-carboxamide] | 5.19 µM | 5.19 µM | 4.02 µM | 6.35 µM | 5.19 ± 0.95 µM | 121 to 123 °C | – |
| CCCN1CCSC1=S [Compound 4b, 3-propyl-thiazolidine-2-thione] | 58.2 µM | 50.5 µM | 57.2 µM | 66.8 µM | 58.2 ± 6.71 µM | – | – |
| S=C1SCCN1c1ccccc1 [Compound 4c, 3-phenyl-thiazolidine-2-thione] | 51.6 µM | 49.4 µM | 52.2 µM | 53.3 µM | 51.6 ± 1.64 µM | – | – |
| SC1=NCCS1 [Compound 3, thiazolidine-2-thione] | 72.2 µM | 74.1 µM | 72.3 µM | 70.1 µM | 72.2 ± 1.66 µM | – | – |
| O=C(Nc1cccnc1)N1CCSC1=S [Compound 6g, N-(pyridin-3-yl)-2-thioxothiazolidine-3-carboxamide] | 14.5 µM | 17.7 µM | 15.1 µM | 10.7 µM | 14.5 ± 2.9 µM | 111 to 113 °C | – |
